Patent publication US7491827B2, “Aryl sulfonamides useful as inhibitors of chemokine receptor activity” (Millennium Pharmaceuticals, Inc., priority 2003, dated 2009)
Like-named read-outs stand apart in the source and are kept apart here.

Target: T1, cloned human CCR8 receptor stably expressed in L1.2 cells (Homo sapiens, UniProt P51685)
T1 construct: expressed in transfected cells
Experiment: whole cell binding screen: inhibition of biotinylated human I309 binding to CCR8 (FMAT 8100 HTS)
Conditions: biotinylated human I-309, 10 point concentration response starting at 10 μM
How it was run: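 Ten-point dilutions, top 10 μM final, were tested for displacing biotin-I309 from hCCR8-transfected L1.2 cells in HEPES-buffered HBSS with BSA and sodium azide, mixing 0.5 h before FMAT 8100 detection. Signals converted to percent inhibition against untreated wells and a 100 nM excess unlabeled I309 control.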

[1] = Ki of compounds to inhibit I-309 binding to CCR8, L1.2/hCCR8 cells
[2] = L1.2/hCCR8 cells, read-out: Ki of compounds to inhibit I-309 binding to CCR8

T1 sequence (P51685 whole entry): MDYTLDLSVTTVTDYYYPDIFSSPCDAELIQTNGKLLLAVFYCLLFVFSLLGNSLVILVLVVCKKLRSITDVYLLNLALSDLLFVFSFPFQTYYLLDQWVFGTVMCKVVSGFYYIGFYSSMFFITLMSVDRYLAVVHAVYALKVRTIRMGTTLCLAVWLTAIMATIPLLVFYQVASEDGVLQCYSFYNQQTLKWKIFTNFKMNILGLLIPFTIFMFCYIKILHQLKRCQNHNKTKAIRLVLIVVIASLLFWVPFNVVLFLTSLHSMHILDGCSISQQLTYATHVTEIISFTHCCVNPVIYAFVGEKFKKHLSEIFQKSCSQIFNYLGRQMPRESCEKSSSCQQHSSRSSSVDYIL

SMILES	Ki [2] [nM]	Ki [1] [nM]
Cc1ccccc1C(=O)Nc1ccc(S(=O)(=O)NC2CCN(C(=O)NC(C)C)CC2)c2ccccc12 [Compound C-46, 4-[4-(2-Methyl-benzoylamino)-naphthalene-1-sulfonylamino]-piperidine-1-carboxylic acid isopropylamide]		< 500
CC(C)(C)OC(=O)N1CCC(NS(=O)(=O)c2ccc(NC(=O)C3CCCCC3)c3ccccc23)CC1 [Compound B-19, 4-[4-(Cyclohexanecarbonyl-amno)-naphthalene-1-sulfonylamino]-piperidine-1-carboxylic acid tert-butyl ester]	< 500	
Cc1ccccc1C(=O)Nc1ccc(S(=O)(=O)N[C@H]2CCN(Cc3ccccc3)C[C@H]2C)c2c1CCCC2 (racemic) [Compound E-13, (±)-cis-N-[4-(1-Benzyl-3-methyl-piperidin-4-ylsulfamoyl)-5,6,7,8-tetrahydro-naphthalen-1-yl]-2-methyl-benzamide]	< 1000	
CCCC(=O)N1CCC(NS(=O)(=O)c2ccc(C(=O)Nc3ccccc3C)c3ccccc23)CC1 [Compound F-9, 4-(1-Butyryl-piperidin-4-ylsulfamoyl)-naphthalene-1-carboxylic acid o-tolylamide]	< 500	
CCOC(=O)[C@@H]1CN(Cc2ccccc2)CC[C@H]1NS(=O)(=O)c1ccc(NC(=O)c2ccccc2C)c2ccccc12 (racemic) [Compound A-48, (±)-(trans)-1-Benzyl-4-[4-(2-methyl-benzoylamino)-naphthalene-1-sulfonylamino]-piperidine-3-carboxylic acid ethyl ester]	< 30000	
CC(C)(C)OC(=O)N1CCC(NS(=O)(=O)c2ccc(C(=O)Nc3ccccc3Cl)c3ccccc23)CC1 [Compound F-14, 4-[4-(2-Chloro-phenylcarbamoyl)-naphthalene-1-sulfonylamino]-piperidine-1-carboxylic acid tert-butyl ester]	< 1000	
O=C(Nc1ccc(S(=O)(=O)NC2CCCC2)c2ccccc12)c1ccccc1 [Compound A-35, N-(4-Cyclopentysulfamoyl-naphthalen-1-yl)-benzamide]	< 500	
CCCC(=O)N1CC[C@H](NS(=O)(=O)c2ccc(NC(=O)c3cccnc3C)c3ccccc23)[C@H](C)C1 (racemic) [Compound D-3, (±)-(cis)-N-[4-(1-Butyryl-3-methyl-piperidin-4-ylsulfamoyl)-naphthalen-1-yl]-2-methyl-nicotinamide]	< 500	
CCCC(=O)N1CCC(NS(=O)(=O)c2ccc(NC(=O)c3c(F)cccc3F)c3ccccc23)CC1 [Compound C-109, N-[4-(1-Butyryl-piperidin-4-ylsulfamoyl)-naphthalen-1-yl]-2,6-difluoro-benzamide]	< 1000	
CCOC(=O)N1CCC(NS(=O)(=O)c2ccc(NC(=O)N3CCCCC3)c3ccccc23)CC1 [Compound B-14, 4-{4-[(Piperidine-1-carbonyl)-amino]-naphthalene-1-sulfonylamino}-piperidine-1-carboxylic acid ethyl ester]		< 500
Cc1ccccc1C(=O)Nc1ccc(S(=O)(=O)NC2CCCNC2)c2c1CCCC2 (racemic) [Compound E-28, (±)-2-Methyl-N-[4-(piperidin-3-ylsulfamoyl)-5,6,7,8-tetrahydro-naphthalen-1-yl]-benzamide]	< 500	
CCCC(=O)N1CCC(NS(=O)(=O)c2ccc(NC(=O)c3ccccc3C)c3ccccc23)CC1 [Compound C-35, N-[4-(1-Butyryl-piperidin-4-ylsulfamoyl)-naphthalen-1-yl]-2-methyl-benzamide]		< 500
Cc1ccccc1C(=O)Nc1ccc(S(=O)(=O)NC2CCN(C(=O)OC(C)(C)C)CC2(C)C)c2ccccc12 (racemic) [Compound A-19, (±)-3,3-Dimethyl-4-[4-(2-methyl-benzoylamino)-naphthalene-0-sulfonylamino]-piperidine-1-carboxylic acid tert-butyl ester]	< 500	
CCOC(=O)N1C[C@@H](C)[C@@H](NS(=O)(=O)c2ccc(NC(=O)c3ccccc3C)c3ccccc23)[C@@H](C)C1 [Compound C-70, (±)-(cis,cis)-3,5-Dimethyl-4-[4-(2-methyl-benzoylamino)-naphthalene-1-sulfonylamino]-piperidine-1-carboxylic acid ethyl ester]	< 1000	
CCOC(=O)N1CC[C@H](NS(=O)(=O)c2ccc(NC(=O)c3ccccc3C)c3ccccc23)[C@@H](CO)C1 (racemic) [Compound C-82, (±)-(trans)-3—Hydroxymethyl-4-[4-(2-methyl-benzoylamino)-naphthalene-1-sulfonylamino]-piperidine-1-carboxylic acid ethyl ester]	< 500	
Cc1ccccc1C(=O)Nc1ccc(S(=O)(=O)NC2CCN(Cc3ccccc3)CC2(C)C)c2ccccc12 (racemic) [Compound A-24, (±)-N-[4-(1-Benzyl-3,3-dimethyl-piperidin-4-ylsulfamoyl)-naphthalen-1-yl]-2-methyl-benzamide]	< 500	
CCNC(=O)N1CCC(NS(=O)(=O)c2ccc(NC(=O)c3ccccc3C)c3ccccc23)C1 (racemic) [Compound C-52, (±)-3-[4-(2-Methyl-benzoylamino)-naphthalene-1-sulfonylamino]-pyrrolidine-1-carboxylic acid ethylamide]	< 500	
Cc1ccccc1C(=O)Nc1ccc(S(=O)(=O)NCCCN2CCCC2=O)c2c1CCCC2 [Compound E-24, 2-Methyl-N-{4-[3-(2-oxo-pyrrolidin-1-yl)-propylsulfamoyl]-5,6,7,8-tetrahydro-naphthalen-1-yl}-benzamide]	< 1000	
CCOC(=O)N1CCC(NS(=O)(=O)c2cccc3c(NC(=O)c4ccccc4)cccc23)CC1 [Compound H-6, 4-(5-Benzoylamino-naphthalene-1-sulfonylamino)-piperidine-1-carboxylic acid ethylester]		< 500
O=C(Nc1ccc(S(=O)(=O)Nc2ccncc2)c2ccccc12)c1ccccc1 [Compound A-14, N-[4-(Pyridin-4-ylsulfamoyl)-naphthalen-1-yl]-benzamide]	< 500	
Cc1ccccc1C(=O)Nc1ccc(S(=O)(=O)NC2CCNCC2)c2ccccc12 [Compound C-36, 2-Methyl-N-[4-(piperidin-4-ylsulfamoyl)-naphthalen-1-yl]-benzamide]	< 500	
CN1CCCC(C(=O)Nc2ccc(S(=O)(=O)NC3CCN(C(=O)OC(C)(C)C)CC3)c3ccccc23)C1 (stereo not shown) [Compound B-23]	< 30000	
CCOC(=O)N1CCC(NS(=O)(=O)c2ccc(NC(=O)c3ccccc3C)c3c2CCCC3)CC1 [Compound E-8, 4-[4-(2-Methyl-benzoylamino)-5,6,7,8-tetrahydro-naphthalene-1-sulfonylamino]-piperidine-1-carboxylic acid ethyl ester]	< 500	

Second part, led by results:

Ki [2] [nM]	SMILES	Ki [1] [nM]
< 500	CCOC(=O)N1CCC(NS(=O)(=O)c2ccc(CNCc3ccccc3Cl)c3ccccc23)CC1 [Compound G-21, 4-{4-[(2-Chloro-benzylamino)-methyl]-naphthalene-1-sulfonylamino}-piperidine-1-carboxylic acid ethyl ester]	
< 500	CCCC(=O)N1CCC(NS(=O)(=O)c2ccc(NC(=O)c3ccccc3C)c3c2CCC3)CC1 [Compound H-65, N-[7-(1-Butyryl-piperidin-4-ylsulfamoyl)-indan-4-yl]-2-methyl-benzamide]	
< 500	Cc1ccccc1C(=O)Nc1ccc(S(=O)(=O)N[C@@H]2CCN(C(=O)[C@H](C)N)C[C@H]2C)c2ccccc12 [Compound J-3, (3R, 4R)-N-{4-[1-(2-(S)-Amino-propionyl)-3-methyl-piperidin-4-ylsulfamoyl]-naphthalen-1-yl}-2-methyl-benzamide]	
< 500	Cc1ccccc1C(=O)Nc1ccc(S(=O)(=O)N[C@H]2CCNC[C@@H]2C)c2ccccc12 [Compound J-44]	
< 500	Cc1ccccc1C(=O)Nc1ccc(S(=O)(=O)N[C@H]2CCN(C(=O)C3CCCN3)C[C@H]2C)c2cccnc12 (stereo in doubt) [Compound J-38, (3R, 4S)-2-Methyl-N-{5-[3-methyl-1-((R)pyrrolidine-2-carbonyl)-piperidin-4-ylsulfamoyl]-quinolin-8-yl}-benzamide]	
< 500	CCOC(=O)N1CCC(NS(=O)(=O)c2cccc3c(NC(=O)c4ccc(C)s4)cccc23)CC1 [Compound H-16, 4-{5-[(5-Methyl-thiophene-2-carbonyl)-amino]-naphthalene-1-sulfonylamino}-piperidine-1-carboxylic acid ethyl ester]	
< 500	O=S(=O)(NC1CCCCC1)c1ccc(CNC2CCCCC2)c2ccccc12 [Compound G-31, 4-Cyclohexylaminomethyl-naphthalene-1-sulfonic acid cyclohexylamide]	
< 30000	CCOC(=O)N1CCC(NS(=O)(=O)c2ccc(CNC3CCN(C)CC3)c3ccccc23)CC1 [Compound G-25, 4-{4-[(1-Methyl-piperidin-4-ylamino)-methyl]-naphthalene-1-sulfonylamino}-piperidine-1-carboxylic acid ethyl ester]	
< 500	CCN1CCC(NS(=O)(=O)c2cccc3c(NC(=O)c4ccccc4C)cccc23)CC1 [Compound H-14, N-[5-(1-Ethyl-piperidin-4-ylsulfamoyl)-naphthalen-1-yl]-2-methyl-benzamide]	
< 500	CCOC(=O)N1CCC(NS(=O)(=O)c2ccc(CNCc3ccc(OC)cc3)c3ccccc23)CC1 [Compound G-10, 4-{4-[(4-Methoxy-benzylamino)-methyl]-naphthalene-1-sulfonylamino}-piperidine-1-carboxylic acid ethyl ester]	
< 1000	CCOC(=O)N1CCC(NS(=O)(=O)c2cccc3c(NC(=O)c4cccs4)cccc23)CC1 [Compound H-9, 4-15-[(Thiophene-2-carbonyl)-amino]-naphthalene-4-sulfonylamino-4-piperidine-1-carboxylic acid ethyl ester]	
